Legend:
[1] = 25° C.; cited from earlier work
P. Fluorescens [2] = experiment: Antimicrobial efficacy of pure CA and PLA-PEO-CA nonwoven; type: cell-based, Pseudomonas fluorescens; conditions: 25° C.
Experimental: (§1) The antimicrobial activity of PLA-PEO-CA nonwoven was tested on two spoilage microorganisms, P. fluorescens and P. aphanidermatum. One of each freshly inoculated P. fluorescens and P. aphanidermatum petri dishes, with the lid removed, were placed in a one-liter glass jar. A piece of PLA-PEO-CA nonwoven or a certain amount of liquid CA was placed in the middle of the jar without touching the petri dishes and the lid was closed immediately. The jar was incubated at 25° C. The growth of the microorganisms was monitored every 24 h for 4 d.

P. aphanidermatum = experiment: as above; type: cell-based, Pythium aphanidermatum; conditions: 25° C.
Experimental: as §1

Yeast = experiment: Inhibitory effects of AITC, diacetyl and cinnamaldehyde vapour; type: cell-based, yeast isolated from mung bean sprouts
Experimental: (§2) P. fluorescens was selected as a model spoilage bacteria, while mould and yeast were isolated from spoiled mung bean sprouts with bacteria excluded by cultivating in potato dextrose broth (PDB) (Sigma, Oakville, ON, Canada) at pH 5.6±0.2. Yeast and P. fluorescens stocks were cultivated in PDB and trypticase soy broth (TSB) (Bacto, BD, Sparks, USA), respectively, at 30° C. for 24 h and diluted with sterile saline solution (NaCl, 8.5 g/L water) to a concentration of 10^6 CFU/mL. An aliquot of 50 μL of the prepared yeast or bacteria suspension was spread on potato dextrose agar (PDA) (Difco, BD, Sparks, USA) or trypticase soy agar (TSA) (Bacto, BD, Sparks, USA), respectively, in 5 cm diameter petri dishes (Fisher Scientific, Ottawa, ON, Canada). Mycelium of mould was inoculated as one spot at the center of the PDA dishes. Two freshly inoculated petri dishes of same microorganism, with their lids removed, were placed in a one-liter glass jar. […] The growth of the microorganisms was monitored by the colony formation for 3 days.

Mould = experiment: as above; type: cell-based, mould isolated from mung bean sprouts; conditions: 25° C.
Experimental: as §2

P. Fluorescens [3] = experiment: as above; type: cell-based, Pseudomonas fluorescens P33; conditions: 25° C.
Experimental: as §2

[4] = Amount 2 mg in one-liter jar, 25° C.
[5] = Amount 5 mg in one-liter jar, 25° C.
[6] = Amount 10 mg in one-liter jar, 25° C.
[7] = Amount 20 mg in one-liter jar, 25° C.

O=C(O)C=Cc1ccccc1 [cinnamic acid]
0.0047 mm Hg: vapor pressure [1]

O=CC=Cc1ccccc1 [Cinnamaldehyde]
2 mm: P. aphanidermatum Day 4, colony diameter (P. aphanidermatum; 30 mg liquid CA in 1 L jar)
1.8 mm: P. aphanidermatum Day 3, colony diameter (P. aphanidermatum; 30 mg liquid CA in 1 L jar)
2.1 mm: P. aphanidermatum Day 2, colony diameter (P. aphanidermatum; 5 mg liquid CA in 1 L jar)
++ (15-50): P. Fluorescens Day 1, visual colony number (P. Fluorescens [2]; 2 mg liquid CA in 1 L jar) | P. Fluorescens Day 1, visual colony number (P. Fluorescens [2]; 5 mg liquid CA in 1 L jar) | Yeast day3, visual colony number (Yeast; [4]) | Mould day1, visual colony number (Mould; Amount 2 mg in one-liter jar) | Mould day2, visual colony number (Mould; Amount 2 mg in one-liter jar) | Mould day3, visual colony number (Mould; Amount 2 mg in one-liter jar) | P. Fluorescens day1, visual colony number (P. Fluorescens [3]; Amount 5 mg in one-liter jar) | P. Fluorescens day2, visual colony number (P. Fluorescens [3]; Amount 5 mg in one-liter jar)
2.8 mm: P. aphanidermatum Day 2, colony diameter (P. aphanidermatum; 2 mg liquid CA in 1 L jar) | P. aphanidermatum Day 3, colony diameter (P. aphanidermatum; 5 mg liquid CA in 1 L jar)
1.3 mm: P. aphanidermatum Day 1, colony diameter (P. aphanidermatum; 2 mg liquid CA in 1 L jar)
30 µg/mL: MIC (Yeast; established on yeast, mould and P. fluorescens from Table 8, read-out: minimum inhibition concentration (MIC))
4 mm: P. aphanidermatum Day 3, colony diameter (P. aphanidermatum; 2 mg liquid CA in 1 L jar)
0.8 mm: P. aphanidermatum Day 1, colony diameter (P. aphanidermatum; 10 mg liquid CA in 1 L jar)
++++ (more than 150): P. Fluorescens Day 2, visual colony number (P. Fluorescens [2]; 2 mg liquid CA in 1 L jar) | P. Fluorescens Day 3, visual colony number (P. Fluorescens [2]; 2 mg liquid CA in 1 L jar) | P. Fluorescens Day 4, visual colony number (P. Fluorescens [2]; 2 mg liquid CA in 1 L jar) | P. Fluorescens Day 2, visual colony number (P. Fluorescens [2]; 5 mg liquid CA in 1 L jar) | P. Fluorescens Day 3, visual colony number (P. Fluorescens [2]; 5 mg liquid CA in 1 L jar) | P. Fluorescens Day 4, visual colony number (P. Fluorescens [2]; 5 mg liquid CA in 1 L jar)
1.6 mm: P. aphanidermatum Day 2, colony diameter (P. aphanidermatum; 10 mg liquid CA in 1 L jar)
+ (less than 15): P. Fluorescens Day 1, visual colony number (P. Fluorescens [2]; 10 mg liquid CA in 1 L jar) | P. Fluorescens Day 2, visual colony number (P. Fluorescens [2]; 30 mg liquid CA in 1 L jar) | P. Fluorescens Day 3, visual colony number (P. Fluorescens [2]; 30 mg liquid CA in 1 L jar) | P. Fluorescens Day 4, visual colony number (P. Fluorescens [2]; 30 mg liquid CA in 1 L jar) | Yeast day1, visual colony number (Yeast; [4]) | Yeast day2, visual colony number (Yeast; [4]) | Yeast day1, visual colony number (Yeast; [5]) | Yeast day2, visual colony number (Yeast; [5]) | Yeast day3, visual colony number (Yeast; [5]) | Yeast day1, visual colony number (Yeast; [6]) | Yeast day2, visual colony number (Yeast; [6]) | Yeast day3, visual colony number (Yeast; [6]) | Yeast day1, visual colony number (Yeast; [7]) | Yeast day2, visual colony number (Yeast; [7]) | Yeast day3, visual colony number (Yeast; [7]) | Mould day1, visual colony number (Mould; Amount 5 mg in one-liter jar) | Mould day2, visual colony number (Mould; Amount 5 mg in one-liter jar) | Mould day3, visual colony number (Mould; Amount 5 mg in one-liter jar) | Mould day1, visual colony number (Mould; Amount 10 mg in one-liter jar) | Mould day2, visual colony number (Mould; Amount 10 mg in one-liter jar) | Mould day3, visual colony number (Mould; Amount 10 mg in one-liter jar) | Mould day1, visual colony number (Mould; Amount 20 mg in one-liter jar) | Mould day2, visual colony number (Mould; Amount 20 mg in one-liter jar) | Mould day3, visual colony number (Mould; Amount 20 mg in one-liter jar) | P. Fluorescens day1, visual colony number (P. Fluorescens [3]; Amount 10 mg in one-liter jar) | P. Fluorescens day2, visual colony number (P. Fluorescens [3]; Amount 10 mg in one-liter jar) | P. Fluorescens day1, visual colony number (P. Fluorescens [3]; Amount 20 mg in one-liter jar) | P. Fluorescens day2, visual colony number (P. Fluorescens [3]; Amount 20 mg in one-liter jar)
0.7 mm: P. aphanidermatum Day 1, colony diameter (P. aphanidermatum; 30 mg liquid CA in 1 L jar)
3.5 mm: P. aphanidermatum Day 4, colony diameter (P. aphanidermatum; 5 mg liquid CA in 1 L jar)
30 mg/L: effective concentration against yeast (Yeast; vapour in one-liter jar, 25° C.) | concentration that inhibited the growth of mould for three days (Mould; vapour in one-liter jar) | effective concentration against P. fluorescens (P. Fluorescens [3]; vapour in one-liter jar)
1.4 mm: P. aphanidermatum Day 2, colony diameter (P. aphanidermatum; 30 mg liquid CA in 1 L jar)
1 mm: P. aphanidermatum Day 1, colony diameter (P. aphanidermatum; 5 mg liquid CA in 1 L jar)
2.2 mm: P. aphanidermatum Day 3, colony diameter (P. aphanidermatum; 10 mg liquid CA in 1 L jar)
5 mm: P. aphanidermatum Day 4, colony diameter (P. aphanidermatum; 2 mg liquid CA in 1 L jar)
2.7 mm: P. aphanidermatum Day 4, colony diameter (P. aphanidermatum; 10 mg liquid CA in 1 L jar)
+++ (50-150): P. Fluorescens Day 2, visual colony number (P. Fluorescens [2]; 10 mg liquid CA in 1 L jar) | P. Fluorescens Day 3, visual colony number (P. Fluorescens [2]; 10 mg liquid CA in 1 L jar) | P. Fluorescens Day 4, visual colony number (P. Fluorescens [2]; 10 mg liquid CA in 1 L jar) | P. Fluorescens day1, visual colony number (P. Fluorescens [3]; Amount 2 mg in one-liter jar) | P. Fluorescens day2, visual colony number (P. Fluorescens [3]; Amount 2 mg in one-liter jar)

— patent publication US11013249B2, “Compositions for controlled release of volatile compounds” (University of Guelph, priority 2016, dated 2021)
